Data as given in EP0235259B1, “NOVEL TRANSDERMAL ANTI-ANGINAL PHARMACEUTICAL DOSAGE UNIT AND PROCESS FOR ITS ADMINISTRATION” (RUTGERS, THE STATE UNIVERSITY OF NEW JERSEY, priority 1985, dated 1987).
Where two headings read alike, the source gives them in different places.

Test system: skin from a "hairless" mouse or human cadaver
Test: transdermal absorption (skin permeation) of nitroglycerin from polymer matrix dosage units, procedure of Keshary and Chien
Conditions: for Enhancement Factor: Table XIV, 15% W/W nitroglycerin in DC-382 matrix
Description: Enhancing Factor is defined as the ratio of normalized permeation rate [in mcg/cm²/hr] of a dosage unit of this invention with skin permeation enhancer/the normalized permeation rate of a corresponding dosage unit without enhancer in the adhesive layer.
Pharm., 10 (6) 883-913(1984).

Compound	Skin Permeation Rate Without [mcg/cm²/hr]	Enhancing Factor (0.8 mg/cm²)	Enhancing Factor (1.59 mg/cm²)	Enhancing Factor (3.18 mg/cm²)	other results
CCCCCCCCCCCCCC(=O)OCC(CO)OC(=O)CCCCCCCCCCCCC (racemic) [1,2-Dimyristoyl-RAC-Glycerol]	39.4 ± 4.32	–	–	–	Enhancing Factor (1.6 mg/cm²): 1.03; Skin Permeation Rate With (1.6 mg/cm²): 40.64 ± 4.27 mcg/cm²/hr
CCCCCCCCCCCCCC(=O)OCC(O)COC(=O)CCCCCCCCCCCCC (racemic) [1,3-Dimyristoyl-RAC-Glycerol]	34.1 ± 1.62	–	–	–	Enhancing Factor (1.6 mg/cm²): 0.94; Skin Permeation Rate With (1.6 mg/cm²): 32.13 ± 6.94 mcg/cm²/hr
CCCCCCCCCCCCCC(=O)OCC(O)CO (racemic) [1-Monomyristoly-RAC-Glycerol]	34.1 ± 1.62	–	–	–	Skin Permeation Rate With: 29.88 ± 3.84 mcg/cm²/hr
CCCCCCCCCCCCCCCC(=O)OCC(O)CO (racemic) [1-Monopalmitoyl-RAC-Glycerol]	34.1 ± 1.62	–	–	–	Enhancing Factor (1.6 mg/cm²): 0.86; Skin Permeation Rate With (1.6 mg/cm²): 29.39 ± 1.76 mcg/cm²/hr
CCCCCCCCCC(=O)O [Enhancer B, Decanoic acid]	–	2.59	4.11	4.41	–
CCCCCCCCCCCCCC(=O)OCCC [Enhancer C, Propyl myristate]	–	1.67	1.92	3.07	Enhancing Factor (4.78 mg/cm²): 3.41
CCCCCCCC/C=C\CCCCCCCC(=O)OCCC [Enhancer D, Propyl oleate]	–	1.22	2.43	3.08	Enhancing Factor (4.78 mg/cm²): 3.78
CCCCCCCC/C=C\CCCCCCCCO [Enhancer E, Oleyl alcohol]	–	1.69	2.82	2.65	–
CCCCCCCCCC[S+](C)[O-] (centres unmarked) [Enhancer G, Decylmethyl sulfoxide]	–	1.61	1.87	–	Enhancing Factor (2.4 mg/cm²): 2.02; Enhancing Factor (5 mg/cm²): 1.36; Enhancing Factor (10 mg/cm²): 1.22
CCCCCCCCCCCCCC(=O)N(C)C [Enhancer H, Myristic acid, N,N-dimethylamide]	–	1.3	2.0	1.6	Enhancing Factor (4.78 mg/cm²): 1.5
O=[N+]([O-])OCC(CO[N+](=O)[O-])O[N+](=O)[O-] [NITROGLYCERIN, nitroglycerin, reference compound]	–	–	–	–	Enhancement Factor (enhancers (mg/cm²): (+) menthol 0.8 + capric acid 0.8 + Methyl Salicylate 0.8): 3.36; Enhancement Factor (enhancers (mg/cm²): (+) menthol 0.8 + capric acid 0.8 + Oleyl alcohol 0.8): 5.29; Enhancement Factor (enhancers (mg/cm²): (+) menthol 0.8 + capric acid 0.8 + Oleyl alcohol 1.6): 4.61; Enhancement Factor (enhancers (mg/cm²): (+) menthol 0.8 + capric acid 0.8 + Salicylic acid 0.8): 3.47
